Assays:
HBV = HBV Infection in HepG2-NTCP Cells (HBeAg AlphaLISA); type: cell-based; conditions: Hepatitis B virus, 192 h, read-out: Cellular EC50 (μM)
Protocol: HepG2-NTCP A3 cells were maintained in DMEM media supplemented with GlutaMAX™, 10% fetal bovine serum, 1% penicillin/streptomycin, and 5 μg/mL puromycin at 37° C. in a humidified atmosphere with 5% CO2 in a collagen-coated tissue culture flask.
HepG2-NTCP cells were seeded in 384 well plate containing 16,000 cells/well two days prior to the infection. On the day of infection, compounds were 3-fold serially diluted in DMSO and pre-incubated with HepG2-NTCP cells for two hours before purified HBV addition. HBV infection was carried out at 2000 GE/cell with 4% PEG, and the final concentration of DMSO is 0.5%. On day one post infection, HBV-containing media was aspirated, cells were washed once with PBS and then maintained in 2.5% DMSO containing media for the remainder of the assay.
Supernatants from infected HepG2-NTCP cells were collected at day 8 post infection, and the amount of viral antigen HBeAg was measured by HBeAg AlphaLISA detection kit (PerkinElmer) following the manufacturer's recommended protocol. Irrespective of readout, compound concentrations that reduce viral product accumulation in supernatants by 50% relative to DMSO controls (EC50) are reported. EC50 ranges are as follows: A<0.1 μM; B 0.1-1 μM; C>1 μM. A dash (-) indicates the compound was not tested.

NTCP = target: T1, NTCP (Homo sapiens, UniProt Q14973); assay: HepG2-NTCP preS1 Binding Competition Assay; conditions: HepG2-NTCP cells pre-treated 2 hours, FITC-labeled myristoylated preS1 peptide co-incubated 30 minutes, cell-surface fluorescence; read-out: Cellular EC50
T1 construct: expressed in transfected cells; host or cells: HepG2-NTCP (A3 clone, kept under puromycin)
T1 sequence (Q14973 1-349): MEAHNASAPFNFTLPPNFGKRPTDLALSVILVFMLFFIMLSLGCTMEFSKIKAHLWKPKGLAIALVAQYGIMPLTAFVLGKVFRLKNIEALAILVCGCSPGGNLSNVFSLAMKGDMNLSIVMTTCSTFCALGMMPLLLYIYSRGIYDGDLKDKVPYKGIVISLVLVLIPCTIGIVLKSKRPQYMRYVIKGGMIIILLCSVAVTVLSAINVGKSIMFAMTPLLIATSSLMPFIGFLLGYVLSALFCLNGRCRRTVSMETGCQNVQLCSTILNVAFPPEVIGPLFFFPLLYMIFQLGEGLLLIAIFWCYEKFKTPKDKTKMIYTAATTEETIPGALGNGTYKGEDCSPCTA
Protocol: Myristoylated preS1 peptide (2-48 aa) conjugated to a C-terminal FITC tag was synthesized to evaluate preS1 binding to NTCP-expressing cells. HepG2-NTCP cells seeded in 384-wells were pre-treated with compounds for 2 hours prior to the addition of FITC-labeled preS1 peptide. After co-incubation for 30 minutes, unbound FITC-preS1 peptide was washed twice with PBS, and the fluorescence of preS1-FITC bound to cell surface was detected by Envision plate reader. EC50 ranges are as follows: A<0.1 μM; B 0.1-1 μM; C>1 μM. A dash (-) indicates the compound was not tested.

CC(C)COC(=O)N[C@H](CCc1cc2c(cc1Cl)N(c1ccccc1)C[C@@H](C1CCCCC1)N(C)S2(=O)=O)C(=O)O [Example 15]
EC50 (HBV): < 0.1 µM | EC50 (NTCP): 100 to 1000 nM

CCCCCOC(=O)N[C@@H](CCc1cc2c(cc1Cl)N(c1ccccc1)C[C@@H](C1CCCCC1)N(C)S2(=O)=O)C(=O)O [Example 16]
EC50 (HBV): 0.1 to 1 µM | EC50 (NTCP): 100 to 1000 nM

CN1[C@H](C2CCCCC2)CN(c2ccccc2)c2cc(Cl)c(CC[C@H](NC(=O)OCc3ccccc3)C(=O)O)cc2S1(=O)=O [Example 22]
EC50 (HBV): 0.1 to 1 µM | EC50 (NTCP): 100 to 1000 nM

CC(C)CS(=O)(=O)N[C@H](CCc1cc2c(cc1Cl)N(c1ccccc1)C[C@@H](C1CCCCC1)N(C)S2(=O)=O)C(=O)O [Example 29]
EC50 (HBV): 0.1 to 1 µM | EC50 (NTCP): < 100 nM

CCCCN(C)C(=O)C(=O)N[C@@H](CCc1cc2c(cc1Cl)N(c1ccccc1)C[C@@H](C1CCCCC1)N(C)S2(=O)=O)C(=O)O [Example 32, (S)-2-(2-(butyl(methyl)amino)-2-oxoacetamido)-4-((R)-7-chloro-3-cyclohexyl-2-methyl-1,1-dioxido-5-phenyl-2,3,4,5-tetrahydrobenzo[f][1,2,5]thiadiazepin-8-yl)butanoic acid]
EC50 (HBV): < 0.1 µM | EC50 (NTCP): < 100 nM

CCCCN(C)C(=O)C(=O)N[C@H](CCc1cc2c(cc1Cl)N(c1ccccc1)C[C@@H](C1CCCCC1)N(C)S2(=O)=O)C(=O)O [Example 33]
EC50 (HBV): 0.1 to 1 µM | EC50 (NTCP): 100 to 1000 nM

CCCCNC(=O)C(=O)N[C@@H](CCc1cc2c(cc1Cl)N(c1ccccc1)C[C@@H](C1CCCCC1)N(C)S2(=O)=O)C(=O)O [Example 34]
EC50 (HBV): < 0.1 µM | EC50 (NTCP): < 100 nM

CNc1cc2c(cc1C(=O)N[C@H](C(=O)O)c1ccc(C(F)(F)F)cc1)S(=O)(=O)N(C)[C@H](C1CCCCC1)CN2c1ccccc1 [Example 39, (S)-2-((R)-3-cyclohexyl-2-methyl-7-(methylamino)-1,1-dioxido-5-phenyl-2,3,4,5-tetrahydrobenzo[f][1,2,5]thiadiazepine-8-carboxamido)-2-(4-(trifluoromethyl)phenyl)acetic acid]
EC50 (HBV): < 0.1 µM | EC50 (NTCP): < 100 nM

CNc1cc2c(cc1C(=O)N[C@H](C(=O)O)c1ccsc1)S(=O)(=O)N(C)[C@H](C1CCCCC1)CN2c1ccccc1 [Example 40]
EC50 (HBV): 0.1 to 1 µM | EC50 (NTCP): < 100 nM

CNc1cc2c(cc1C(=O)N[C@H](C(=O)O)C1CCCCC1)S(=O)(=O)N(C)[C@H](C1CCCCC1)CN2c1ccccc1 [Example 41]
EC50 (HBV): < 0.1 µM | EC50 (NTCP): < 100 nM

CNc1cc2c(cc1C(=O)N[C@H](C(=O)O)c1cccc(Cl)c1)S(=O)(=O)N(C)[C@H](C1CCCCC1)CN2c1ccccc1 [Example 45]
EC50 (HBV): < 0.1 µM | EC50 (NTCP): < 100 nM

Reference: patent US20250304542A1, “Fused Heterobicyclic Antiviral Agents” (Enanta Pharmaceuticals, Inc., priority 2024, published 2025)
